Reference: ChEMBL document CHEMBL1201861, “Genomics of Drug Sensitity in Cancer screening data, Wellcome Trust Sanger Institute”

How the values were obtained:
Assay in all cases: cells
Assay type in all cases: functional, cell-based, Homo sapiens
[1] = test system: LB647-SCLC;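 note: cell growth inhibition, read out by a viability assay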
Description: SANGER: Inhibition of human LB647-SCLC cell growth in a cell viability assay.

[2] = test system: GDM-1;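 note: cell viability readout used to measure growth inhibition of human GDM-1 cells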
Description: SANGER: Inhibition of human GDM-1 cell growth in a cell viability assay.

[3] = test system: IST-SL2;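 note: growth inhibition of human IST-SL2 cells, read out by a cell viability assay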
Description: SANGER: Inhibition of human IST-SL2 cell growth in a cell viability assay.

[4] = test system: NCI-H2227;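 note: growth inhibition of the human cell line, read out with a cell viability assay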
Description: SANGER: Inhibition of human NCI-H2227 cell growth in a cell viability assay.

[5] = test system: KARPAS-422
Description: SANGER: Inhibition of human KARPAS-422 cell growth in a cell viability assay.

[6] = test system: MHH-CALL-2;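 note: growth inhibition of the cell line, read out in a cell viability assay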
Description: SANGER: Inhibition of human MHH-CALL-2 cell growth in a cell viability assay.

[7] = test system: CHP-126
Description: SANGER: Inhibition of human CHP-126 cell growth in a cell viability assay.

[8] = test system: NCI-H1417;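 note: human NCI-H1417 cells, growth inhibition determined with a cell viability readout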
Description: SANGER: Inhibition of human NCI-H1417 cell growth in a cell viability assay.

[9] = test system: HOP-92;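 note: cell viability readout, with IC50 reflecting inhibition of HOP-92 cell growth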
Description: SANGER: Inhibition of human HOP-92 cell growth in a cell viability assay.

[10] = test system: CAL-39;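 note: cell viability assay measuring growth inhibition of CAL-39 cells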
Description: SANGER: Inhibition of human CAL-39 cell growth in a cell viability assay.

[11] = test system: TYK-nu;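 note: growth inhibition of human TYK-nu cells, read out by a cell viability assay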
Description: SANGER: Inhibition of human TYK-nu cell growth in a cell viability assay.

[12] = test system: FaDu;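 note: cell viability readout of growth inhibition in FaDu cells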
Description: SANGER: Inhibition of human FADU cell growth in a cell viability assay.

[13] = test system: SK-OV-3;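 note: growth inhibition of SK-OV-3 human cells, read out with a cell viability assay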
Description: SANGER: Inhibition of human SK-OV-3 cell growth in a cell viability assay.

[14] = test system: MDA-MB-453
Description: SANGER: Inhibition of human MDA-MB-453 cell growth in a cell viability assay.

[15] = test system: NCI-H1792;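 note: growth inhibition of human NCI-H1792 cells, read out as cell viability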
Description: SANGER: Inhibition of human NCI-H1792 cell growth in a cell viability assay.

[16] = test system: T-24;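 note: growth inhibition of T-24 cells, read out with a cell viability assay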
Description: SANGER: Inhibition of human T-24 cell growth in a cell viability assay.

[17] = test system: MCF7;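 note: growth inhibition of human MCF7 cells, read out with a cell viability assay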
Description: SANGER: Inhibition of human MCF7 cell growth in a cell viability assay.

[18] = test system: JEG-3;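 note: growth inhibition of human JEG-3 cells, read out with a cell viability assay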
Description: SANGER: Inhibition of human JEG-3 cell growth in a cell viability assay.

[19] = test system: COLO-741
Description: SANGER: Inhibition of human COLO-741 cell growth in a cell viability assay.

[20] = test system: RVH-421
Description: SANGER: Inhibition of human RVH-421 cell growth in a cell viability assay.

[21] = test system: PANC-03-27
Description: SANGER: Inhibition of human PANC-03-27 cell growth in a cell viability assay.

[22] = test system: PA-1;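 note: IC50 for suppression of PA-1 cell proliferation, determined with a cell viability read-out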
Description: SANGER: Inhibition of human PA-1 cell growth in a cell viability assay.

[23] = test system: 769-P
Description: SANGER: Inhibition of human 769-P cell growth in a cell viability assay.

[24] = test system: HCC1419;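 note: growth inhibition of human HCC1419 cells, read out as cell viability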
Description: SANGER: Inhibition of human HCC1419 cell growth in a cell viability assay.

[25] = test system: NCI-H2009;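 note: cell viability assay measuring inhibition of NCI-H2009 cell growth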
Description: SANGER: Inhibition of human NCI-H2009 cell growth in a cell viability assay.

[26] = test system: A-431;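 note: growth inhibition of A-431 cells, determined with a cell viability read-out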
Description: SANGER: Inhibition of human A431 cell growth in a cell viability assay.

[27] = test system: HMV-2 cell line;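 note: growth inhibition of HMV-II cells, read out with a cell viability assay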
Description: SANGER: Inhibition of human HMV-II cell growth in a cell viability assay.

[28] = test system: A2058;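 note: reduction of A2058 cell growth, read out with a viability assay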
Description: SANGER: Inhibition of human A2058 cell growth in a cell viability assay.

[29] = test system: CAL-120;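 note: cell growth inhibition, read out as cell viability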
Description: SANGER: Inhibition of human CAL-120 cell growth in a cell viability assay.

[30] = test system: 639-V;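 note: growth inhibition of 639-V cells, read out with a cell viability assay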
Description: SANGER: Inhibition of human 639-V cell growth in a cell viability assay.

[31] = test system: BFTC-905
Description: SANGER: Inhibition of human BFTC-905 cell growth in a cell viability assay.

[32] = test system: DU-145
Description: SANGER: Inhibition of human DU-145 cell growth in a cell viability assay.

[33] = test system: EGI-1;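 note: cell viability readout used to gauge growth inhibition of EGI-1 cells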
Description: SANGER: Inhibition of human EGI-1 cell growth in a cell viability assay.

[34] = test system: MC-IXC;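 note: growth inhibition of MC-IXC cells, read out with a cell viability assay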
Description: SANGER: Inhibition of human MC-IXC cell growth in a cell viability assay.

[35] = test system: SW1990;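 note: cell growth inhibition determined with a viability assay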
Description: SANGER: Inhibition of human SW1990 cell growth in a cell viability assay.

[36] = test system: NCI-H2228;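 note: growth inhibition of human NCI-H2228 cells, read out by a cell viability assay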
Description: SANGER: Inhibition of human NCI-H2228 cell growth in a cell viability assay.

[37] = test system: NUGC-3;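 note: growth inhibition of human NUGC-3 cells, read out with a cell viability assay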
Description: SANGER: Inhibition of human NUGC-3 cell growth in a cell viability assay.

[38] = test system: NCI-H460;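 note: cell viability assay scoring growth inhibition of human NCI-H460 cells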
Description: SANGER: Inhibition of human NCI-H460 cell growth in a cell viability assay.

[39] = test system: HCC1937;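 note: growth inhibition measured with a cell viability read-out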
Description: SANGER: Inhibition of human HCC1937 cell growth in a cell viability assay.

[40] = test system: MG-63;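 note: growth inhibition of human MG-63 cells, read out with a cell viability assay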
Description: SANGER: Inhibition of human MG-63 cell growth in a cell viability assay.

[41] = test system: SW1573;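 note: growth inhibition of SW1573 cells, read out with a cell viability assay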
Description: SANGER: Inhibition of human SW1573 cell growth in a cell viability assay.

[42] = test system: BEN;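 note: growth inhibition of the BEN cell line, read out with a cell viability assay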
Description: SANGER: Inhibition of human BEN cell growth in a cell viability assay.

[43] = test system: KYSE-140;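 note: cell viability assay measuring growth inhibition in human KYSE-140 cells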
Description: SANGER: Inhibition of human KYSE-140 cell growth in a cell viability assay.

[44] = test system: IGR-1;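 note: growth inhibition of human IGR-1 cells, read out with a cell viability assay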
Description: SANGER: Inhibition of human IGR-1 cell growth in a cell viability assay.

[45] = test system: UO-31;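 note: cell viability assay measuring inhibition of cell growth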
Description: SANGER: Inhibition of human U031 cell growth in a cell viability assay.

COc1cc2ncn(-c3cc(OCc4ccccc4S(C)(=O)=O)c(C#N)s3)c2cc1OC [GSK-319347A]
IC50 ([1]; Homo sapiens, LB647-SCLC): > 5 µM | IC50 ([2]; Homo sapiens, GDM-1): > 5 µM | IC50 ([3]; Homo sapiens, IST-SL2): > 5 µM | IC50 ([4]; Homo sapiens, NCI-H2227): > 5 µM | IC50 ([5]; Homo sapiens, KARPAS-422): > 5 µM | IC50 ([6]; Homo sapiens, MHH-CALL-2): > 5 µM | IC50 ([7]; Homo sapiens, CHP-126): > 5 µM | IC50 ([8]; Homo sapiens, NCI-H1417): > 5 µM

CC[C@H](CO)Nc1nc(NCc2ccccc2)c2ncn(C(C)C)c2n1 [SELICICLIB]
IC50 ([1]; Homo sapiens, LB647-SCLC): > 16 µM | IC50 ([2]; Homo sapiens, GDM-1): > 16 µM | IC50 ([3]; Homo sapiens, IST-SL2): > 16 µM | IC50 ([4]; Homo sapiens, NCI-H2227): > 16 µM | IC50 ([5]; Homo sapiens, KARPAS-422): 9.96 µM | IC50 ([6]; Homo sapiens, MHH-CALL-2): > 16 µM | IC50 ([7]; Homo sapiens, CHP-126): > 16 µM | IC50 ([8]; Homo sapiens, NCI-H1417): > 16 µM

CC(=O)O[C@H]1C(=O)[C@@]2(C)[C@H]([C@H](OC(=O)c3ccccc3)[C@]3(O)C[C@H](OC(=O)[C@H](O)[C@@H](NC(=O)c4ccccc4)c4ccccc4)C(C)=C1C3(C)C)[C@]1(OC(C)=O)CO[C@@H]1C[C@@H]2O [PACLITAXEL]
IC50 ([1]; Homo sapiens, LB647-SCLC): 0.0105 µM | IC50 ([2]; Homo sapiens, GDM-1): > 0.102 µM | IC50 ([3]; Homo sapiens, IST-SL2): 0.0427 µM | IC50 ([5]; Homo sapiens, KARPAS-422): 0.0565 µM | IC50 ([6]; Homo sapiens, MHH-CALL-2): 0.0356 µM | IC50 ([7]; Homo sapiens, CHP-126): > 0.102 µM | IC50 ([8]; Homo sapiens, NCI-H1417): > 0.102 µM

O=C(O)c1ccc(-c2c[nH]c3ncc(-c4ccccc4)cc23)cc1C1CCCC1 [GSK-650394]
IC50 ([9]; Homo sapiens, HOP-92): > 16 µM | IC50 ([10]; Homo sapiens, CAL-39): 9.31 µM | IC50 ([11]; Homo sapiens, TYK-nu): > 16 µM | IC50 ([12]; Homo sapiens, FaDu): > 16 µM | IC50 ([13]; Homo sapiens, SK-OV-3): > 16 µM | IC50 ([1]; Homo sapiens, LB647-SCLC): 7.93 µM | IC50 ([2]; Homo sapiens, GDM-1): 0.879 µM | IC50 ([14]; Homo sapiens, MDA-MB-453): > 16 µM | IC50 ([15]; Homo sapiens, NCI-H1792): > 16 µM | IC50 ([16]; Homo sapiens, T-24): > 16 µM | IC50 ([3]; Homo sapiens, IST-SL2): 4.83 µM | IC50 ([4]; Homo sapiens, NCI-H2227): > 16 µM | IC50 ([17]; Homo sapiens, MCF7): 1.82 µM | IC50 ([5]; Homo sapiens, KARPAS-422): > 16 µM | IC50 ([6]; Homo sapiens, MHH-CALL-2): > 16 µM | IC50 ([18]; Homo sapiens, JEG-3): > 16 µM | IC50 ([7]; Homo sapiens, CHP-126): > 16 µM | IC50 ([19]; Homo sapiens, COLO-741): > 16 µM | IC50 ([20]; Homo sapiens, RVH-421): > 16 µM | IC50 ([21]; Homo sapiens, PANC-03-27): > 16 µM | IC50 ([22]; Homo sapiens, PA-1): 3.33 µM | IC50 ([23]; Homo sapiens, 769-P): 4.89 µM | IC50 ([24]; Homo sapiens, HCC1419): > 16 µM | IC50 ([8]; Homo sapiens, NCI-H1417): > 16 µM | IC50 ([25]; Homo sapiens, NCI-H2009): 3.76 µM | IC50 ([26]; Homo sapiens, A-431): 1.86 µM | IC50 ([27]; Homo sapiens, HMV-2): 7.51 µM | IC50 ([28]; Homo sapiens, A2058): 13.5 µM | IC50 ([29]; Homo sapiens, CAL-120): > 16 µM | IC50 ([30]; Homo sapiens, 639-V): 5.17 µM | IC50 ([31]; Homo sapiens, BFTC-905): 0.785 µM | IC50 ([32]; Homo sapiens, DU-145): > 16 µM | IC50 ([33]; Homo sapiens, EGI-1): > 16 µM | IC50 ([34]; Homo sapiens, MC-IXC): > 16 µM | IC50 ([35]; Homo sapiens, SW1990): > 16 µM | IC50 ([36]; Homo sapiens, NCI-H2228): 4.64 µM | IC50 ([37]; Homo sapiens, NUGC-3): > 16 µM | IC50 ([38]; Homo sapiens, NCI-H460): 3.4 µM | IC50 ([39]; Homo sapiens, HCC1937): > 16 µM | IC50 ([40]; Homo sapiens, MG-63): > 16 µM | IC50 ([41]; Homo sapiens, SW1573): > 16 µM | IC50 ([42]; Homo sapiens, BEN): > 16 µM | IC50 ([43]; Homo sapiens, KYSE-140): 8.09 µM | IC50 ([44]; Homo sapiens, IGR-1): 4.23 µM | IC50 ([45]; Homo sapiens, UO-31): > 16 µM

CCN(CC)CCNC(=O)c1c(C)[nH]c(/C=C2\C(=O)Nc3ccc(F)cc32)c1C [SUNITINIB]
IC50 ([1]; Homo sapiens, LB647-SCLC): > 8 µM | IC50 ([2]; Homo sapiens, GDM-1): > 8 µM | IC50 ([3]; Homo sapiens, IST-SL2): 6.13 µM | IC50 ([5]; Homo sapiens, KARPAS-422): 7.57 µM | IC50 ([6]; Homo sapiens, MHH-CALL-2): 5.77 µM | IC50 ([7]; Homo sapiens, CHP-126): > 8 µM | IC50 ([8]; Homo sapiens, NCI-H1417): > 8 µM

BLEOMYCIN
IC50 ([9]; hop-92): 9.26 µM | IC50 ([10]; cal-39): 0.000315 µM | IC50 ([11]; tyk-nu): 3.03 µM | IC50 ([12]; fadu): 5.14 µM | IC50 ([13]; sk-ov-3): 4.88 µM | IC50 ([1]; lb647-sclc): 3.14 µM | IC50 ([2]; gdm-1): 0.228 µM | IC50 ([14]; mda-mb-453): 15.4 µM | IC50 ([15]; nci-h1792): 2.57 µM | IC50 ([16]; t-24): 0.72 µM | IC50 ([3]; ist-sl2): 0.000173 µM | IC50 ([4]; nci-h2227): 721 µM | IC50 ([17]; mcf7): 1.17 µM | IC50 ([5]; karpas-422): 168 µM | IC50 ([6]; mhh-call-2): 0.535 µM | IC50 ([18]; jeg-3): 8.55 µM | IC50 ([7]; chp-126): 1.27 µM | IC50 ([19]; colo-741): 16.4 µM | IC50 ([20]; rvh-421): 2.57 µM | IC50 ([21]; panc-03-27): 0.316 µM | IC50 ([22]; pa-1): 2.02 µM | IC50 ([23]; 769-p): 0.123 µM | IC50 ([24]; hcc1419): 253 µM | IC50 ([8]; nci-h1417): 30.4 µM | IC50 ([25]; nci-h2009): 2.56 µM | IC50 ([26]; a-431): 2.11 µM | IC50 ([27]; hmv-2): 0.0697 µM | IC50 ([28]; a2058): 0.808 µM | IC50 ([29]; cal-120): 5.56 µM | IC50 ([30]; 639-v): 0.22 µM | IC50 ([31]; bftc-905): 2.32 µM | IC50 ([32]; du-145): 0.823 µM | IC50 ([33]; egi-1): 0.772 µM | IC50 ([34]; mc-ixc): 3 µM | IC50 ([35]; sw1990): 4.24 µM | IC50 ([36]; nci-h2228): 0.955 µM | IC50 ([37]; nugc-3): 1.13 µM | IC50 ([38]; nci-h460): 4.76 µM | IC50 ([39]; hcc1937): 0.000254 µM | IC50 ([40]; mg-63): 1.49 µM | IC50 ([41]; sw1573): 0.137 µM | IC50 ([42]; ben): 46 µM | IC50 ([43]; kyse-140): 3.9 µM | IC50 ([44]; igr-1): 2.35 µM | IC50 ([45]; uo-31): 0.934 µM
